Source: patent publication US20250361526A1, “[…] CYTOMEGALOVIRUS-DERIVED TOOL VIRUS, METHOD OF PRODUCING THE SAME AND APPLICATIONS THEREOF” (WUHAN INSTITUTE OF VIROLOGY, CHINESE ACADEMY OF SCIENCES, priority 2022, published 2025)

Tested on: MCMV
Assay: In vivo challenge of newborn ICR mice with K181-Nluc/Green, live and organ imaging
Protocol: To verify whether recombinant virus K181-Nluc/Green can be applied to evaluate potential drugs, neutralizing antibodies, vaccines, etc. against CMV in vivo. The inventors of the present invention carried out in vivo challenge test with ICR mice in the Animal Biosafety Laboratory (ABSL-2). […] Twelve newborn ICR mice were divided into three groups: control group (PBS), placebo group (DMSO) and ganciclovir (GCV) treatment group. By intracerebroventricular injection (I.C.), 1 μl (4×10^5 PFU) K181-Nluc/Green virus solution was injected into the lateral ventricles of newborn mice (P0) to establish the brain infection model of MCMV virus. After 1 day of challenge, 50 mg/kg GCV was given to mice every day until the 7th day after infection, and the Nanoluc substrate (Cat. #N1120, Promega, USA) was intraperitoneally injected on the 1st, 3rd, 5th, 7th, 9th, 11th and 14th days after infection.
In addition, seven days after the mice were infected, one mouse was randomly selected from the placebo (DMSO) group and the GCV treatment group, and Nanoluc substrate was injected intraperitoneally. […] The organs and tissues of mice were taken, and the content of MCMV virus in organs and tissues of mice in different groups was evaluated by fluorescence activity.

Compound: Nc1nc(O)c2ncn(COC(CO)CO)c2n1 [GCV, ganciclovir]
- Nluc or GFP signals in different organs of mice (I.C. 4×10^5 PFU K181-Nluc/Green, 50 mg/kg GCV every day, 7 days after infection (FIGS. 14 and 15)): no detection of apparent Nluc or GFP signals
- MCMV replication and spreading in vivo (I.C. K181-Nluc/Green, 50 mg/kg GCV every day until the 7th day): effectively reduce the MCMV replication and spreading in vivo
